This note sets out measurements from patent EP1157985A1 (G.D. SEARLE & CO., priority 1996, dated 1997).

Experiment [1] deals with T1, Human vitronectin receptor (αvβ3) (Homo sapiens, UniProt P05106+P06756).
T1 construct: Human vitronectin receptor (αvβ3) was purified from human placenta; from tissue; host or cells: human placenta
In words: Vitronectin adhesion assay (solid phase receptor assay, competition with biotinylated vitronectin). It counts as binding. The protocol:
VITRONECTIN ADHESION ASSAY
Human vitronectin receptor (αvβ3) was purified from human placenta as previously described [Pytela et al., Methods in Enzymology, 144:475-489 (1987)]. Human vitronectin was purified from fresh frozen plasma as previously described [Yatohgo et al., Cell Structure and Function, 13:281-292 (1988)]. Biotinylated human vitronectin was prepared by coupling NHS-biotin from Pierce Chemical Company (Rockford, IL) to purified vitronectin as previously described [Charo et al., J. Biol. Chem., 266(3):1415-1421 (1991)]. Assay buffer, OPD substrate tablets, and RIA grade BSA were obtained from Sigma (St. Louis, MO). Anti-biotin antibody was obtained from Calbiochem (La Jolla, CA). Linbro microtiter plates were obtained from Flow Labs (McLean, VA). ADP reagent was obtained from Sigma (St. Louis, MO).
This assay was essentially the same as previously reported [Niiya et al., Blood, 70:475-483 (1987)]. The purified human vitronectin receptor (αvβ3) was diluted from stock solutions to 1.0 µg/mL in Tris-buffered saline containing 1.0 mM Ca^++, Mg^++, and Mn^++, pH 7.4 (TBS^+++). The diluted receptor was immediately transferred to Linbro microtiter plates at 100 µL/well (100 ng receptor/well). The plates were sealed and incubated overnight at 4°C to allow the receptor to bind to the wells. All remaining steps were at room temperature. The assay plates were emptied and 200 µL of 1% RIA grade BSA in TBS^+++ (TBS^+++/BSA) were added to block exposed plastic surfaces. Following a 2 hour incubation, the assay plates were washed with TBS^+++ using a 96 well plate washer. Logarithmic serial dilution of the test compound and controls were made starting at a stock concentration of 2 mM and using 2 nM biotinylated vitronectin in TBS^+++/BSA as the diluent. This premixing of labeled ligand with test (or control) ligand, and subsequent transfer of 50 µL aliquots to the assay plate was carried out with a CETUS Propette robot; the final concentration of the labeled ligand was 1 nM and the highest concentration of test compound was 1.0 x 10^-4 M. The competition occurred for two hours after which all wells were washed with a plate washer as before. Affinity purified horseradish peroxidase labeled goat anti-biotin antibody was diluted 1:3000 in TBS^+++/BSA and 125 µL were added to each well. After 30 minutes, the plates were washed and incubated with OPD/H2O2 substrate in 100 mM/L Citrate buffer, pH 5.0. The plate was read with a microtiter plate reader at a wavelength of 450 nm and when the maximum-binding control wells reached an absorbance of about 1.0, the final A450 were recorded for analysis. The data were analyzed using a macro written for use with the EXCEL™ spreadsheet program. The mean, standard deviation, and %CV were determined for duplicate concentrations. The mean A450 values were normalized to the mean of four maximum-binding controls (no competitor added)(B-MAX). The normalized values were subjected to a four parameter curve fit algorithm [Rodbard et al., Int.

Experiment [2] concerns the target T2, Human fibrinogen receptor (αIIbβ3) (Homo sapiens, UniProt P05106+P08514).
T2 construct: Human fibrinogen receptor (αIIbβ3) was purified from outdated platelets; from tissue; host or cells: outdated (human) platelets
In words: Purified IIb/IIIa receptor assay (solid phase receptor assay, competition with biotinylated vitronectin). It counts as binding. The conditions noted are these: purified receptor from outdated platelets; 1 nM biotinylated vitronectin; highest concentration tested 1.0 x 10^-4 M. The source says:
PURIFIED IIb/IIIa RECEPTOR ASSAY
Human fibrinogen receptor (αIIbβ3) was purified from outdated platelets. (Pytela, R., Pierschbacher, M.D., Argraves, S., Suzuki, S., and Rouslahti, E. "Arginine-Glycine-Aspartic acid adhesion receptors", Methods in Enzymology 144(1987):475-489.) Human vitronectin was purified from fresh frozen plasma as described in Yatohgo, T., Izumi, M., Kashiwagi, H., and Hayashi, M., "Novel purification of vitronectin from human plasma by heparin affinity chromatography," Cell Structure and Function 13(1988):281-292. Biotinylated human vitronectin was prepared by coupling NHS-biotin from Pierce Chemical Company (Rockford, IL) to purified vitronectin as previously described. (Charo, I.F., Nannizzi, L., Phillips, D.R., Hsu, M.A., Scarborough, R.M., "Inhibition of fibrinogen binding to GP IIb/IIIa by a GP IIIa peptide", J. Biol. Chem. 266(3)(1991): 1415-1421.) Assay buffer, OPD substrate tablets, and RIA grade BSA were obtained from Sigma (St. Louis, MO). Anti-biotin antibody was obtained from Calbiochem (La Jolla, CA). Linbro microtiter plates were obtained from Flow Labs (McLean, VA). ADP reagent was obtained from Sigma (St. Louis, MO).
This assay is essentially the same reported in Niiya, K., Hodson, E., Bader, R., Byers-Ward, V. Koziol, J.A., Plow, E.F. and Ruggeri, Z.M., "Increased surface expression of the membrane glycoprotein IIb/IIIa complex induced by platelet activation: Relationships to the binding of fibrinogen and platelet aggregation", Blood 70(1987):475-483. The purified human fibrinogen receptor (αIIbβ3) was diluted from stock solutions to 1.0 µg/mL in Tris-buffered saline containing 1.0 mM Ca^++, Mg^++, and Mn^++, pH 7.4 (TBS^+++). The diluted receptor was immediately transferred to Linbro microtiter plates at 100 µL/well (100 ng receptor/well). The plates were sealed and incubated overnight at 4°C to allow the receptor to bind to the wells. All remaining steps were at room temperature. The assay plates were emptied and 200 µL of 1% RIA grade BSA in TBS^+++ (TBS^+++/BSA) were added to block exposed plastic surfaces. Following a 2 hour incubation, the assay plates were washed with TBS^+++ using a 96 well plate washer. Logarithmic serial dilution of the test compound and controls were made starting at a stock concentration of 2 mM and using 2 nM biotinylated vitronectin in TBS^+++/BSA as the diluent. This premixing of labeled ligand with test (or control) ligand, and subsequent transfer of 50 µL aliquots to the assay plate was carried out with a CETUS Propette robot; the final concentration of the labeled ligand was 1 nM and the highest concentration of test compound was 1.0 x 10^-4 M. The competition occurred for two hours after which all wells were washed with a plate washer as before. Affinity purified horseradish peroxidase labeled goat anti-biotin antibody was diluted 1:3000 in TBS^+++/BSA and 125 µL were added to each well. After 30 minutes, the plates were washed and incubated with […] substrate in 100 mM/L citrate buffer, pH 5.0. The plate was read with a microtiter plate reader at a wavelength of 450 nm and when the maximum-binding control wells reached an absorbance of about 1.0, the final A450 were recorded for analysis. The data were analyzed using a macro written for use with the EXCEL™ spreadsheet program. The mean, standard deviation, and %CV were determined for duplicate concentrations. The mean A450 values were normalized to the mean of four maximum-binding controls (no competitor added)(B-MAX). The normalized values were subjected to a four parameter curve fit algorithm, [Robard et al., Int. […]

[3] abbreviates: purified receptor from human placenta; 1 nM biotinylated vitronectin; highest concentration tested 1.0 x 10^-4 M; read-out: AvB3 IC50.

Counter-ions that a name gives are not always drawn. Like-named read-outs stand apart in the source and are kept apart here.

Broadly, the IC50 is the concentration at which inhibition is half-maximal. On to `CC(C)OC(=O)NC(Cc1ccc(NC(=O)c2cccc(Nc3n[nH]c(N)n3)c2)cc1)C(=O)O` (racemic) [Example 103, (±) 4-[[[3-[3-amino-1H-1,2,4-triazol-5-yl)amino]-phenyl]carbonyl]amino]-N-[(1-methylethoxy) carbonyl]phenylalanine, trifluoroacetate salt], for which the half-maximal inhibitory concentration (IC50) in experiment [1] (setting [3]) came to 269 nM; in experiment [2], 3660 nM.

Turning to `CC(C)OC(=O)NC(Cc1ccc(NC(=O)c2cccc(Nc3noc(N)n3)c2)cc1)C(=O)O` (racemic) [Example 104, (±) 4-[[[3-[(5-amino-1,2,4-oxadiazol-3-yl)amino]-phenyl]carbonyl]amino]-N-[(1-methylethoxy)carbonyl]phenylalanine, trifluoroacetate salt], the IC50 in experiment [1] (setting [3]) amounted to 506 nM; in experiment [2], 1600 nM.

Consider `CCCCS(=O)(=O)N[C@@H](Cc1ccc(NC(=O)c2cc(NC3=NCCCCC3)cc(C(F)(F)F)c2)cc1)C(=O)O` [Example 6, N-(butylsulfonyl)-4-[[[3-[(3,4,5,6-tetrahydro-2H-azepin-7-yl)-amino]-5-(trifluoromethyl)phenyl]carbonyl]-amino]phenylalanine, trifluoroacetate salt], for which the values for the IC50 in experiment [1] (setting [3]) and in experiment [2] were 0.51 nM and 49.5 nM, respectively.

As to `CCCCS(=O)(=O)N[C@@H](Cc1ccc(NC(=O)c2cccc(NC3=NCCCCC3)c2)cc1)C(=O)O` [Example 10, N-(butylsulfonyl)-4-[[[3-[(3,4,5,6-tetrahydro-2H-azepin-7-yl)-amino]phenyl]carbonyl]amino]phenylalanine, trifluoroacetate salt], the IC50 in experiment [1] (setting [3]) was determined as 1.17 nM; in experiment [2], 26.9 nM.

As for `CCOC(=O)CCc1ccc(CNC(=O)c2cccc(C#N)c2)cc1` [Example 12, ethyl 4-[[[[3-(cyano)phenyl]-carbonyl]amino]methyl]benzenepropanoate], the IC50 in experiment [1] (setting [3]) was over 100000 nM; in experiment [2], 69200 nM.

Take `N=C(N)c1cccc(C(=O)NCc2ccc(CCC(=O)O)cc2)c1` [Example 19, 4-[[[[3-(aminoiminomethyl)phenyl]carbonyl]amino]methyl]benzenepropanoic acid, trifluoroacetate salt]: the IC50 in experiment [1] (setting [3]) is over 100000 nM; in experiment [2] it was 1780 nM.

`NC(=O)Nc1cccc(C(=O)Nc2ccc(CCC(=O)O)cc2)c1` [Example 24, 4-[[[3-[(aminocarbonyl)amino]phenyl]carbonyl]amino]benzenepropanoic acid]: the IC50 in experiment [1] (setting [3]) was found to be 1220 nM; in experiment [2] it was 4530 nM.

Regarding `O=C(O)CCc1ccc(NC(=O)c2cccc(NC(=O)NCc3ccccc3)c2)cc1` [Example 28, 4-[[[3-[[[(phenylmethyl)amino]carbonyl]amino]phenyl]carbonyl]amino]benzenepropanoic acid], the IC50 stood at 555 nM in experiment [1] (setting [3]) and 10100 nM in experiment [2].

Consider `N=C(N)Nc1cccc(C(=O)NCc2ccc(CCC(=O)O)cc2)c1` [Example 29, 4-[[[[3-[(aminoiminomethyl)amino]phenyl]carbonyl]amino]methyl]benzenepropanoic acid, trifluoroacetate salt], for which the IC50 turned out to be 4000 nM in experiment [1] (setting [3]) and 1280 nM in experiment [2].

For the molecule `CC(CC(=O)O)c1ccc(NC(=O)c2cccc(NC(=N)N)c2)cc1` (stereo not drawn) [Example 31, 4-[[[3-[(aminoiminomethyl)amino]phenyl]. carbonyl]amino]-β-methylbenzenepropanoic acid, trifluoroacetate salt], the IC50 amounted to 114 nM in experiment [1] (setting [3]) and 66.5 nM in experiment [2].

For the molecule `N=C(N)Nc1cccc(C(=O)Nc2ccc(C(CC(=O)O)c3ccccc3)cc2)c1` (stereo not drawn) [Example 33, 4-[[[3-[(aminoiminomethyl)amino]phenyl]carbonyl]amino]-β-phenylbenzenepropanoic acid, trifluoroacetate salt], the IC50 in experiment [1] (setting [3]) was 73.6 nM; in experiment [2], 7.37 nM.

For the molecule `CCOC(=O)C(Cc1ccc(NC(=O)c2cccc(NC(=N)N)c2)cc1)NC(C)=O` (stereo not shown) [Example 34, N-acetyl-4-[[[3-[(aminoiminomethyl)amino]phenyl)carbonyl]amino]phenylalanine ethyl ester, trifluoroacetate salt], the values for the IC50 in experiment [1] (setting [3]) and in experiment [2] were 45.2 nM and 2200 nM, respectively.

As to `CCCCS(=O)(=O)NC(Cc1ccc(NC(=O)c2cccc(NC(=N)N)c2)cc1)C(=O)OCC` (stereo not shown) [Example 41, trifluoroacetate salt], the IC50 turned out to be 1080 nM in experiment [1] (read-out: AvB3 IC50; purified receptor from human placenta; 1 nM biotinylated vitronectin; highest concentration tested 1.0 x 10^-4 M) and 5700 nM in experiment [2].

For `CCOC(=O)C(Cc1ccc(NC(=O)c2cccc(NC(=N)N)c2)cc1)NC(=O)OC(C)(C)C` (stereo not shown) [Example 44, trifluoroacetate salt], the IC50 in experiment [1] (setting [3]) worked out at 120 nM; in experiment [2], 4310 nM.

Regarding `N=C(N)Nc1cccc(C(=O)Nc2ccc(CC(NC(=O)c3ccccc3)C(=O)O)cc2)c1` (stereo not shown) [Example 47, trifluoroacetate salt], the IC50 in experiment [1] (setting [3]) came to 5.89 nM; in experiment [2], 51.1 nM.

Consider `CS(=O)(=O)NC(Cc1ccc(NC(=O)c2cccc(NC(=N)N)c2)cc1)C(=O)O` (stereo not shown) [Example 48, trifluoroacetate salt], for which the IC50 in experiment [1] (setting [3]) was 0.63 nM; in experiment [2], 15.6 nM.

With `CCOC(=O)NC(Cc1ccc(NC(=O)c2cccc(NC(=N)N)c2)cc1)C(=O)O` (stereo not shown) [Example 49, trifluoroacetate salt], the results for the IC50 in experiment [1] (setting [3]) and in experiment [2] were 1.1 nM and 31.4 nM, respectively.
